The source of these data is patent publication US8410128B2, “Triazolopyridine compounds useful as kinase inhibitors” (Bristol-Myers Squibb Company, priority 2008, dated 2013).

For the assay, the target named is T1, p38 (Homo sapiens, UniProt Q16539).
T1 construct: GST (N); made in house; host or cells: E. coli
Briefly: p38 Assay (33P-ATP/MBP filter kinase assay). Format: biochemical. The settings on record: bacterially expressed, activated p38 10 nM; ATP 1 μM; MBP substrate; 25° C., 45 min. On the procedure:
Generation of p38 Kinases
For this assay, cDNAs of human p38α, β, and γ isozymes were cloned by PCR. These cDNAs were subcloned in the pGEX expression vector (Pharmacia). GST-p38 fusion protein was expressed in E. Coli and purified from bacterial pellets by affinity chromatography using glutathione agarose. p38 fusion protein was activated by incubating with constitutively active MKK6. Active p38 was separated from MKK6 by affinity chromatography. Constitutively active MKK6 was generated according to Raingeaud et al. (Mol. Cell. Biol., 1247-1255 (1996)).
The assays were performed in V-bottomed 96-well plates. The final assay volume was 60 μl prepared from three 20 μl additions of enzyme, substrates (MBP and ATP) and test compounds in assay buffer (50 mM Tris pH 7.5, 10 mM MgCl2, 50 mM NaCl and 1 mM DTT). Bacterially expressed, activated p38 was pre-incubated with test compounds for 10 min. prior to initiation of reaction with substrates. The reaction was incubated at 25° C. for 45 min. and terminated by adding 5 μl of 0.5 M EDTA to each sample. […] The filtermat was then dried in a microwave oven for 1 min., treated with MELTILEX® A scintillation wax (Wallac), and counted on a MICROBETA® scintillation counter Model 1450 (Wallac). Inhibition data were analyzed by nonlinear least-squares regression using PRIZM® (GraphPadSoftware). […]

T1 sequence (Q16539 whole entry): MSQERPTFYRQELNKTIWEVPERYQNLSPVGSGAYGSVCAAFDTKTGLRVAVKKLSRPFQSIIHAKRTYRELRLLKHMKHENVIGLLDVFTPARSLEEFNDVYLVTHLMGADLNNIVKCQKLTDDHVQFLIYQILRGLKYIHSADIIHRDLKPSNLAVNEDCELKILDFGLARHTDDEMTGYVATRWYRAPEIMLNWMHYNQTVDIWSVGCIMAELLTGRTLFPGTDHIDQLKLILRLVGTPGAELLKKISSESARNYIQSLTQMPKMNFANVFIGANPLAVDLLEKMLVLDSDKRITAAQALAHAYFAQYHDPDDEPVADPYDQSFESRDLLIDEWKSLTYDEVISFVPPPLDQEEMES

By IC50 is commonly meant the concentration that gives 50% inhibition. Low readings indicate greater potency, high ones weaker potency. Regarding `CC(C)Nc1ncc(-c2ccc3nncn3c2)s1` [Example 12], half-maximal inhibition (IC50) required 0.581 µM.
